# Results from patent publication US10287253B2, “Substituted pyrimidines containing acidic groups as TLR7 modulators” (Apros Therapeutics, Inc., priority 2016, dated 2019).
# Target: human TLR7 (hTLR7) (Homo sapiens (Human), UniProt Q9NYK1)
# Test: HEK TLR7 assay (HEK-Blue hTLR7 cells, NF-kB/AP-1 SEAP reporter)
# Assay type: cell-based
# Settings: HEK-Blue hTLR7 cells, 16 h incubation, SEAP read at 620-655 nm
# Excerpt: HEK-Blue™ TLR7 cells were purchased from Invivogen (San Diego, Calif.). The following description was taken from the product information sheet.
# “HEK-Blue™ hTLR7 cells are designed for studying the stimulation of human TLR7 (hTLR7) by monitoring the activation of NF-kB. HEK-Blue™ hTLR7 cells were obtained by co-transfection of the hTLR7 gene and an optimized secreted embryonic alkaline phosphatase (SEAP) reporter gene into HEK293 cells. The SEAP reporter gene is placed under the control of the IFN-b minimal promoter fused to five NF-kB and AP-1-binding sites. Stimulation with a TLR7 ligand activates NF-kB and AP-1 which induce the production of SEAP, which is detected by the HEK-Blue™ Detection cell culture medium.”
# A typical assay protocol involved the following steps: • 1. Cells were cultured according to the product information sheet. • 2. 10 mM compound stock in DMSO were first diluted to 3 mM and then 3-fold serially diluted using DMSO to afford a 10-pt dilution. • 3. 3 μl of the diluted DMSO were added to 57 μl HEK-Blue™ Detection media for a further 20-fold dilution. • 4. 10 μl of the diluted compound in assay media were added into 40 μl cell culture (in HEK-Blue™ Detection media) in 384-well plate. Final cell concentration=8,000 cells per well. • 5. The plates were incubated at 37° C. in 5% CO2 for 16 h. SEAP was determined using a spectrophotometer at 620-655 nm.
# Chain of human TLR7 (hTLR7) (Q9NYK1 27-1049): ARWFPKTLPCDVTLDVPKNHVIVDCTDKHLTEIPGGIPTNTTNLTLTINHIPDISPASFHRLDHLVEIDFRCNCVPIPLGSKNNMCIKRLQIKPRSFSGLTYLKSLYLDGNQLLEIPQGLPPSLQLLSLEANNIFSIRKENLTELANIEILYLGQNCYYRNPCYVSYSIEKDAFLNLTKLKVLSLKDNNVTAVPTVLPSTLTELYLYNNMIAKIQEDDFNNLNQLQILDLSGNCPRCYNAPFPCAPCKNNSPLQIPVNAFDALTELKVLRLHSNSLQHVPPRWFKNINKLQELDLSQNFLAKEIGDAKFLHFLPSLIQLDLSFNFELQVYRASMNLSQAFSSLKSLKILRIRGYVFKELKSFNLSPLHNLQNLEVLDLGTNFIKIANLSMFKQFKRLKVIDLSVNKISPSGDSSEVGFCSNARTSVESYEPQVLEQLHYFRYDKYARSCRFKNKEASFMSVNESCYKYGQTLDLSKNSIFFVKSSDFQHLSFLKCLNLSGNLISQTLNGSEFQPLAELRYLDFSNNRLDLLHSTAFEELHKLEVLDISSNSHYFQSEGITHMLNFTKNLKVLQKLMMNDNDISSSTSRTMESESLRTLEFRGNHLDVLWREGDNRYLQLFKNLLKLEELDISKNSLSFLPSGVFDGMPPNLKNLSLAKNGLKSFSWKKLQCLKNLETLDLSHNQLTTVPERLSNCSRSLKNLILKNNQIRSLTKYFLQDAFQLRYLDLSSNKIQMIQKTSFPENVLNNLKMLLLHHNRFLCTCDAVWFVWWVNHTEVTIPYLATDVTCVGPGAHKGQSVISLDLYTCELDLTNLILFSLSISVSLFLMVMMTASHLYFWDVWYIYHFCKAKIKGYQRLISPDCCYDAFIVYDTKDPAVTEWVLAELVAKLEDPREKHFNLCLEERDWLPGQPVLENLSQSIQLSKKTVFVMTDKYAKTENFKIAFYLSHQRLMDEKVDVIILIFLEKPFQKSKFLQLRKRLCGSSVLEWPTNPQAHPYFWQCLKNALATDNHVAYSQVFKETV
row,EC50,SMILES
1,1000 to 10000 nM,"CCCCNc1nc(N)nc(C)c1Cc1ccc(Cc2nn[nH]n2)cc1OC [Compound 2, 5-(4-((2H-tetrazol-5-yl)methyl)-2-methoxybenzyl)-N4-butyl-6-methylpyrimidine-2,4-diamine]"
2,1000 to 10000 nM,"CCCCNc1nc(N)nc(C)c1Cc1cc(CCC(=O)O)ccc1OC [Compound 4, 3-(3-((2-amino-4-(butylamino)-6-methylpyrimidin-5-yl)methyl)-4-methoxyphenyl)propanoic acid]"
3,1000 to 10000 nM,"CCCCNc1nc(N)nc(C)c1Cc1cc(Cc2nnn(CC(=O)O)n2)ccc1OC [Compound 5, 2-(5-(3-((2-amino-4-(butylamino)-6-methylpyrimidin-5-yl)methyl)-4-methoxybenzyl)-2H-tetrazol-2-yl)acetic acid]"
4,1000 to 10000 nM,"CCCCNc1nc(N)nc(C)c1Cc1cc(Cc2nnnn2CC(=O)O)ccc1OC [Compound 6, 2-(5-(3-((2-amino-4-(butylamino)-6-methylpyrimidin-5-yl)methyl)-4-methoxybenzyl)-1H-tetrazol-1-yl)acetic acid]"
5,100 to 1000 nM,"CCC[C@@H](CO)Nc1nc(N)nc(C)c1Cc1cc(Cc2nn[nH]n2)ccc1OC [Compound 8, (S)-2-((5-(5-((2H-tetrazol-5-yl)methyl)-2-methoxybenzyl)-2-amino-6-methylpyrimidin-4-yl)amino)pentan-1-ol]"
6,1000 to 10000 nM,"CCCC[C@H](CC(=O)O)Nc1nc(N)nc(C)c1Cc1cc(Cc2nn[nH]n2)ccc1OC [Compound 20C, (R)-3-((5-(5-((2H-tetrazol-5-yl)methyl)-2-methoxybenzyl)-2-amino-6-methylpyrimidin-4-yl)amino)heptanoic acid]"
7,100 to 1000 nM,"CCCCCNc1nc(N)nc(C)c1Cc1cc(Cc2nn[nH]n2)ccc1OC [Compound 26, 5-(5-((2H-tetrazol-5-yl)methyl)-2-methoxybenzyl)-6-methyl-M-pentylpyrimidine-2,4-diamine]"
8,1000 to 10000 nM,"CCCCNc1nc(N)nc(C)c1Cc1cc(C(=O)NCCCc2nn[nH]n2)ccc1OC [Compound 28, N-(3-(2H-tetrazol-5-yl)propyl)-3-((2-amino-4-(butylamino)-6-methyl-pyrimidin-5-yl)methyl)-4-methoxybenzamide]"
9,1000 to 10000 nM,"CCCCNc1nc(N)nc(C)c1Sc1cc(Cc2nn[nH]n2)ccc1OC [Compound 31, 5-((5-((2H-tetrazol-5-yl)methyl)-2-methoxyphenyl)thio)-N^4-butyl-6-methylpyrimidine-2,4-diamine]"
10,100 to 1000 nM,"CCCC(C)Nc1nc(N)nc(C)c1Cc1cc(Cc2nn[nH]n2)ccc1OC (centres unmarked) [Compound 39, 5-(5-((2H-tetrazol-5-yl)methyl)-2-methoxybenzyl)-6-methyl-N^4-(pentan-2-yl)pyrimidine-2,4-diamine]"

# More lines, now with the values behind:
row,SMILES,EC50
1,"CCCCNc1nc(N)nc(C)c1Cc1ccc(CCC(=O)O)cc1OC [Compound 1, 3-(4-((2-amino-4-(butylamino)-6-methylpyrimidin-5-yl)methyl)-3-methoxyphenyl)propanoic acid]",1000 to 10000 nM
2,"CCCCNc1nc(N)nc(C)c1Cc1cc(CP(=O)(O)O)ccc1OC [Compound 7, (3-((2-amino-4-(butylamino)-6-methylpyrimidin-5-yl)methyl)-4-methoxybenzyl)phosphonic acid]",1000 to 10000 nM
3,"CCCCNc1nc(N)nc(C)c1Cc1cc(C2(C(=O)O)CC2)ccc1OC [Compound 14, 1-(3-((2-amino-4-(butylamino)-6-methylpyrimidin-5-yl)methyl)-4-methoxyphenyl)cyclopropane-1-carboxylic acid]",1000 to 10000 nM
4,"CCCCNc1nc(N)nc(C)c1Cc1cc(C(=O)NCCS(=O)(=O)O)ccc1OC [Compound 16, 2-(3-((2-amino-4-(butylamino)-6-methylpyrimidin-5-yl)methyl)-4-methoxybenzamido)ethane-1-sulfonic acid]",100 to 1000 nM
5,"CCCCNc1nc(N)nc(CCC(=O)O)c1CCc1ccc(OC)cc1 [Compound 19, 3-(2-amino-6-(butylamino)-5-(4-methoxyphenethyl)pyrimidin-4-yl)pro-panoic acid]",1000 to 10000 nM
6,"CCCC[C@@H](CCO)Nc1nc(N)nc(CCC(=O)O)c1OC [Compound 21, (S)-3-(2-amino-6-((1-hydroxyheptan-3-yl)amino)-5-methoxypyrimidin-4-yl)propanoic acid]",1000 to 10000 nM
7,"CCCCNc1nc(N)nc(C)c1Cc1cc(C(=O)NCCCC(=O)O)ccc1OC [Compound 25, 4-(3-((2-amino-4-(butylamino)-6-methylpyrimidin-5-yl)methyl)-4-methoxybenzamido)butanoic acid]",100 to 1000 nM
8,"CCCC[C@@H](CCO)Nc1nc(N)nc(CCC(=O)O)c1Cc1ccccc1OC [Compound 27, (S)-3-(2-amino-6-((1-hydroxyheptan-3-yl)amino)-5-(2-methoxybenzyl)-pyrimidin-4-yl)propanoic acid]",100 to 1000 nM
9,"CCCC[C@@H](CCc1nn[nH]n1)Nc1nc(N)nc(C)c1Cc1ccccc1OC [Compound 36, (S)—N^4-(1-(2H-tetrazol-5-yl)heptan-3-yl)-S-(2-methoxybenzyl)-6-methylpyrimidine-2,4-diamine]",100 to 1000 nM
10,"CCCCNc1nc(N)nc(CCc2nn[nH]n2)c1Cc1ccccc1OC [Compound 37, 6-(2-(2H-tetrazol-5-yl)ethyl)-N^4-butyl-5-(2-methoxybenzyl)pyrimidine-2,4-diamine]",100 to 1000 nM
11,"CCCC[C@@H](CCSC)Nc1nc(N)nc(CCC(=O)O)c1Cc1ccccc1OC [Compound 38, (S)-3-(2-amino-5-(2-methoxybenzyl)-6-((1-(methylthio)heptan-3-yl)amino)pyrimidin-4-yl)propanoic acid]",< 100 nM
12,"CCCCNc1nc(N)nc(CCCO)c1Cc1ccccc1OC [Compound 47, 3-(2-amino-6-(butylamino)-5-(2-methoxybenzyl)pyrimidin-4-yl)propan-1-ol]",100 to 1000 nM
13,"CCCC[C@@H](CCSC)Nc1nc(N)nc(CCC(=O)O)c1Cc1cc(Cc2nn[nH]n2)ccc1OC [Compound 48, (S)-3-(5-(5-((2H-tetrazol-5-yl)methyl)-2-methoxybenzyl)-2-amino-6-((1-(methylthio)-heptan-3-yl)amino)pyrimidin-4-yl)propanoic acid]",< 100 nM
14,"CCCC[C@@H](CCOC)Nc1nc(N)nc(CCC(=O)O)c1Cc1cc(Cc2nn[nH]n2)ccc1OC [Compound 49, (S)-3-(5-(5-((2H-tetrazol-5-yl)methyl)-2-methoxybenzyl)-2-amino-6-((1-methoxyheptan-3-yl)amino)pyrimidin-4-yl)propanoic acid]",100 to 1000 nM
15,"CCCC[C@@H](CCS(C)(=O)=O)Nc1nc(N)nc(CCC(=O)O)c1Cc1cc(CC(=O)O)ccc1OC [Compound 50, (S)-3-(2-amino-5-(5-(carboxymethyl)-2-methoxybenzyl)-6-((1-(methylsulfonyl)heptan-3-yl)amino)pyrimidin-4-yl)propanoic acid]",100 to 1000 nM
16,"CCCC[C@@H](CCS(C)(=O)=O)Nc1nc(N)nc(C)c1Cc1cc(CC(=O)O)ccc1OC [Compound 51, (S)-2-(3-((2-amino-4-methyl-6-((1-(methylsulfonyl)heptan-3-yl)amino)pyrimidin-5-yl)methyl)-4-methoxyphenyl)acetic acid]",100 to 1000 nM
